Results published in US9809602B2, “Compounds for treating viral infections” (INSTITUT PASTEUR KOREA, priority 2014, dated 2017).

Test system: genotype 1/2 chimeric cell culture derived HCV (HCVcc)
Experiment: Genotype 1/2 chimeric HCVcc assay (nano-luciferase, HCV replication)
Type: cell-based
Details: Hepatitis C virus
Outline: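 Huh-7.5 cells (2400/well) pretreated 2 h with serially diluted compound, then infected with nano-luciferase genotype 1a/2a (JFH-1) chimeric HCVcc. At 72 h post infection, nano-luciferase reported replication and cellular ATP reported cytotoxicity; EC50 and CC50 by non-linear regression.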

Row | SMILES | EC50 [nM]
1 | O=C(CCCN1CCC(N2CCCCC2)CC1)Nc1ccc(Oc2ccc(C(F)(F)F)cc2)cc1 [Compound 1078] | 100 to 1000
2 | Cc1cc(NC(=O)CCCN2CCC(N3CCCCC3)CC2)ccc1-c1ccc(C(F)(F)F)cc1 [Compound 1152] | < 100
3 | COc1cc(NC(=O)CCCN2CCC(N3CCCCC3)CC2)ccc1-c1ccc(C(F)(F)F)cc1 [Compound 1157] | 100 to 1000
4 | O=C(NCCCN1CCC(N2CCCCC2)CC1)c1cccc(-c2ccccc2)c1 [Compound 1025] | 1000 to 10000
5 | O=C(CCCN1CCC(N2CCCCC2)CC1)Nc1ccc(Oc2ccccc2)cc1 [Compound 1052] | 100 to 1000
6 | O=C(NCCCN1CCC(N2CCCCC2)CC1)c1ccccc1-c1ccccc1 [Compound 1011] | > 10000
7 | O=C(NCCCN1CCC(N2CCCCC2)CC1)c1ccc(-c2ccccc2)cc1 [Compound 1005] | 100 to 1000
8 | O=S(=O)(NCCCN1CCC(N2CCCCC2)CC1)c1ccc(-c2ccc(F)cc2)cc1 [Compound 1096] | 100 to 1000
9 | COc1ccc(-c2ccc(C(=O)NCCCN3CCC(N4CCCCC4)CC3)cc2)c(F)c1 [Compound 1131] | 100 to 1000
10 | O=C(NCCCN1CCC(N2CCCCC2)CC1)c1ccc(-c2cccs2)cc1 [Compound 1023] | 100 to 1000
11 | O=C(NCCCN1CCC(N2CCCCC2)CC1)c1ccc2oc3ccccc3c2c1 [Compound 1074] | 1000 to 10000
12 | O=C(NCCCN1CCC(N2CCCCC2)CC1)c1cc2ccccc2s1 [Compound 1009] | 1000 to 10000
13 | O=C(NCCCN1CCC(N2CCCCC2)CC1)c1ccc(-c2ccc(Cl)cc2C(F)(F)F)cc1 [Compound 1136] | 100 to 1000
14 | O=C(NCCCN1CCN(C(=O)c2ccccc2)CC1)c1ccc(Oc2ccccc2)cc1 [Compound 1039] | > 10000
15 | O=C(NCCN1CCC(N2CCCCC2)CC1)c1ccc(Oc2ccccc2)cc1 [Compound 1044] | 1000 to 10000
16 | O=C(CCCN1CCC(N2CCCCC2)CC1)Nc1ccc(-c2ccc(C(F)(F)F)cc2)nc1 [Compound 1116] | 100 to 1000
17 | O=C(NCCCN1CCC(N2CCCCC2)CC1)c1ccc(-c2cccc(Cl)c2)cc1 [Compound 1141] | 100 to 1000
18 | O=C(NCCCN1CCC(N2CCOCC2)CC1)c1ccc(Oc2ccccc2)cc1 [Compound 1050] | 1000 to 10000
19 | O=S(=O)(NCCCCN1CCC(N2CCCCC2)CC1)c1ccc(-c2ccc(C(F)(F)F)cc2)cc1 [Compound 1095] | 100 to 1000
20 | O=C(NCCCN1CCC(N2CCCCC2)CC1)c1ccc(Oc2cccc(C(F)(F)F)c2)cc1 [Compound 1108] | 100 to 1000
21 | O=C(NCCCN1CCC(N2CCCCC2)CC1)c1ccc(Oc2ccc(F)cc2)cc1 [Compound 1033] | 1000 to 10000
22 | c1ccc(Oc2ccc(CNCCCN3CCC(N4CCCCC4)CC3)cc2)cc1 [Compound 1046] | 100 to 1000

Same assay, conditions: Hepatitis C virus, Huh7.5, 72 h

Row | SMILES | EC50 [nM]
23 | CCc1sc2c(c1CNC(=O)Nc1sc3c(c1C(=O)OC1CCCC1)CCCC3)CCNC2 [Compound 313] | < 100
24 | CC(C)(C)OC(=O)c1c(NC(=O)NCc2c(-c3cnc(Sc4ccccc4)nc3)sc3c2CCNC3)sc2c1CCCC2 [Compound 323] | 100 to 1000
25 | CCOC(=O)c1c(NC(=O)NCc2c(-n3cccc3)sc3c2CCCN3C(=O)OC(C)(C)C)sc2c1CCCC2 [Compound 100] | > 10000
26 | CC(C)(C)OC(=O)c1c(NC(=O)NCc2c(-c3ccccc3C(F)(F)F)sc3c2CCNC3)sc2c1CCCC2 [Compound 161] | 100 to 1000
27 | CCOC(=O)c1c(NC(=O)NCc2c(-n3cccc3)sc3c2CCN(C(C)=O)C3)sc2c1CCCC2 [Compound 20] | < 100
28 | CC1CCCc2sc(NC(=O)NCc3c(-n4cccc4)sc4c3CCN(C)C4)c(C(=O)OC(C)(C)C)c21 (stereo not drawn) [Compound 291] | < 100
29 | C=CCN1CCc2c(sc(-n3cccc3)c2CNC(=O)Nc2sc3c(c2C(=O)OC(C)(C)C)CCCC3)C1 [Compound 324] | < 100
30 | CCN1CCc2c(sc(-n3cccc3)c2CNC(=O)Nc2sc3c(c2C(=O)NN2CCN(C)CC2)CCCC3)C1 [Compound 253] | 100 to 1000
31 | O=C(NCc1c(C(F)(F)F)sc2c1CCNC2)Nc1sc2c(c1C(=O)OC1CCCC1)CCCC2 [Compound 235] | < 100
32 | CCOC(=O)c1c(NC(=S)NCc2c(-n3cccc3)sc3c2CCN(CC)C3)sc2c1CCCC2 [Compound 44] | < 100
33 | O=C(NCc1c(Br)sc2c1CCNC2)Nc1sc2c(c1C(=O)OC1CCCCC1)CCCC2 [Compound 271] | < 100
34 | COc1sc2c(c1CNC(=O)Nc1sc3c(c1C(=O)OC(C)(C)C)CCCC3)CCNC2 [Compound 126] | < 100
35 | CC(C)(C)OC(=O)c1c(NC(=O)NCc2c(-n3cccc3)sc3c2CCN(C(C)(C)C)C3)sc2c1CCCC2 [Compound 99] | < 100
36 | CCOC(=O)c1c(NC(=O)NC(C)c2c(-n3cccc3)sc3c2CCN(CC)C3)sc2c1CCCC2 (stereo not drawn) [Compound 1] | 100 to 1000
37 | CCN1CCc2c(sc(-n3cccc3)c2CNC(=O)Nc2cccs2)C1 [Compound 15] | > 10000
38 | CC(C)(C)OC(=O)c1c(NC(=O)NCc2c(C(F)(F)F)sc3c2CCNC3)sc2c1CCCC2 [Compound 117] | < 100
39 | CCN1CCc2c(sc(C(F)(F)F)c2CNC(=O)Nc2sc3c(c2C(=O)OC(C)(C)C)CCCC3)C1 [Compound 119] | < 100
40 | CCN1CCc2c(sc(-n3cccc3)c2CNC(=O)Nc2sc3c(c2C(=O)NCCCCNC(=O)CCCCCNC(=O)OC(C)(C)C)CCCC3)C1 [Compound 92] | 1000 to 10000
41 | CCN1CCc2c(sc(-n3cccc3)c2CNC(=O)Nc2sc3c(c2C(N)=O)CCCC3)C1 [Compound 37] | 100 to 1000
42 | CCOC(=O)c1c(NC(=O)NCc2c(-n3cccc3)sc3c2CCN(CC)C3)sc(N2CCOCC2)c1C [Compound 33] | 100 to 1000
43 | CC(C)(C)OC(=O)c1c(NC(=O)NCc2c(-c3ccccc3O)sc3c2CCNC3)sc2c1CCCC2 [Compound 249] | 100 to 1000
44 | Cc1c(CNC(=O)Nc2sc3c(c2C(=O)OC(C)(C)C)CCCC3)csc1CN(C)C [Compound 189] | < 100
45 | CC(C)(C)OC(=O)c1c(NC(=O)NCc2c(C(F)(F)F)sc3c2CCNC3)sc2c1CCCCC2 [Compound 245] | < 100
46 | CC(C)(C)OC(=O)c1c(NC(=O)NCc2c(-n3cccc3)sc3c2CCN(CCF)C3)sc2c1CCCC2 [Compound 242] | < 100
47 | Cc1sc(NC(=O)C(=O)NCc2c(C(F)(F)F)sc3c2CCNC3)c(C(=O)OC(C)(C)C)c1C [Compound 360] | 100 to 1000
48 | CC(C)(C)OC(=O)c1c(NC(=O)NCc2c(-c3cccc(Cl)c3)sc3c2CCNC3)sc2c1CCCC2 [Compound 180] | < 100
49 | O=C(NCc1c(-n2cccc2)sc2c1CCNC2)Nc1sc2c(c1C(=O)N1CCOCC1)CCCC2 [Compound 76] | 100 to 1000

Row | SMILES | EC50 [nM]
50 | CN1CCc2c(sc(C(F)(F)F)c2CNC(=O)Nc2sc3c(c2C(=O)OC(C)(C)C)CCCCC3)C1 [Compound 281] | < 100
51 | COC(=O)c1c(NC(=O)NCc2c(Br)sc3c2CC[N+](C)(C)C3)sc2c1CCCC2 [Compound 176] | < 100
52 | Cc1sc(NC(=O)NCc2c(-c3cccc(F)c3)sc3c2CCNC3)c(C(=O)OC(C)C)c1C [Compound 251] | < 100
53 | CCOC(=O)c1cc(C)ccc1NC(=O)NCc1c(-n2cccc2)sc2c1CCNC2 [Compound 104] | 1000 to 10000
54 | CCN1CCc2c(sc(-n3cccc3)c2CNC(=O)Nc2sc3c(c2C(=O)NCCCCNC(=O)OC(C)(C)C)CCCC3)C1 [Compound 90] | 1000 to 10000
55 | CC(C)(C)OC(=O)c1c(NC(=O)NCc2c(-c3cncc(F)c3)sc3c2CCNC3)sc2c1CCCC2 [Compound 248] | < 100
56 | CCOC(=O)c1c(NC(=O)NCc2c(Br)sc3c2CCNC3)sc2c1CCC(C)C2 (stereo not drawn) [Compound 165] | < 100
57 | CC1CCCc2sc(NC(=O)NCc3c(Br)sc4c3CCNC4)c(C(=O)OC(C)(C)C)c21 (stereo not drawn) [Compound 290] | < 100
58 | CCOC(=O)c1c(NC(=O)NCc2c(C)sc3c2CCNC3)sc2c1CCCC2 [Compound 107] | < 100
59 | CCOC(=O)c1c(NC(=O)NCc2c(-n3cccc3)sc3c2CCN(C)C3)sc2c1CC(C)CC2 (stereo not drawn) [Compound 191] | < 100
60 | CC(C)(C)OC(=O)c1c(NC(=O)NCc2c(-c3ccc(C(F)(F)F)nc3)sc3c2CCNC3)sc2c1CCCC2 [Compound 131] | 100 to 1000
61 | CC(C)N1CCc2c(sc(Br)c2CNC(=O)Nc2sc3c(c2C(=O)OC(C)(C)C)CCCC3)C1 [Compound 187] | < 100
62 | CC(C)(C)OC(=O)c1c(NC(=O)NCc2c(N3CCCC3)sc3c2CCNC3)sc2c1CCCC2 [Compound 143] | < 100
63 | CCN1CCc2c(sc(-n3cccc3)c2CNC(=O)Nc2sc3c(c2C(=O)OC(C)(C)C)CCCC3)C1 [Compound 14] | < 100
64 | CCOC(=O)c1c(NC(=O)NCc2c(-n3cccc3)sc3c2CCNC3)sc2c1CCC2 [Compound 112] | < 100
65 | CC1CCc2c(sc(NC(=O)NCc3c(C(F)(F)F)sc4c3CCNC4)c2C(=O)OC(C)(C)C)C1 (stereo not drawn) [Compound 212] | < 100
66 | Cc1sc(NC(=O)NCc2c(-n3c(C)ccc3C)sc3c2CCNC3)c(C(=O)OC2CCOC2)c1C (stereo not drawn) [Compound 353] | 1000 to 10000
67 | CC(C)(C)OC(=O)c1c(NC(=O)NCc2c(-c3ccc(C(=O)O)cc3)sc3c2CCNC3)sc2c1CCCC2 [Compound 257] | 1000 to 10000
68 | CCOC(=O)c1c(NC(=O)NCc2c(-n3cccc3)sc3c2CCNC3)sc2c1CCCC2 [Compound 61] | < 100
69 | CCOC(=O)c1c(NC(=O)NCc2c(-n3cccc3)sc3c2CCNC3)sc2c1CCC(F)(F)C2 [Compound 75] | < 100
70 | CCOC(=O)c1c(NC(=O)NCc2c(-n3cccc3)sc3c2CCN(CC)C3)sc(C(=O)N(C)C)c1C [Compound 58] | 1000 to 10000
71 | CCOC(=O)c1c(NC(=O)NCc2c(-n3cccc3)sc3c2CCNC3)sc2c1CCCCC2 [Compound 113] | 100 to 1000
72 | CCOC(=O)c1c(NC(=O)NCc2ccc(N(C)C)cc2)sc2c1CCCC2 [Compound 103] | < 100
73 | CCOC(=O)c1c(NC(=O)NC(=O)c2c(-n3c(C)ccc3C)sc3c2CCN(CC)C3)sc2c1CCCC2 [Compound 49] | 1000 to 10000
74 | O=C(NCc1c(-n2cccc2)sc2c1CCNC2)Nc1sc2c(c1C(=O)NCC1CCCCC1)CCCC2 [Compound 83] | 1000 to 10000
75 | CCOC(=O)c1sc2c(c1NC(=O)NCc1c(-n3cccc3)sc3c1CCN(CC)C3)CCCC2 [Compound 109] | 1000 to 10000
